# Where “and” joins values, the source holds several entries; their conditions need not be identical. Equal entries are not always repeated. Where two headings read alike, the source gives them in different places.
# How the values were obtained:
# [1] = test system: HCV replicon cell line, AVA5; assay: Cytotoxicity by neutral red dye uptake in replicon cultures in parallel plates; conditions: read-out: Control 2 (μM) CC50; genotype 1B
# Description: (§1) Primary anti-HCV assay-Antiviral activity against HCV was assessed in a 3-day assay (Okuse, et al., 2005; Antiviral. Res. 65:23; Korba, et al., 2008, Antiviral Res. 77:56) using the stably-expressing HCV replicon cell line, AVA5 [sub-genomic (CON1), genotype 1b](Blight, et al., 2000, Science 290:1972) maintained as sub-confluent cultures on 96-well plates. Antiviral activity was determined by blot hybridization analysis of intracellular HCV RNA (normalized to the level of cellular B-actin RNA in each culture sample). Cytotoxicity was assessed by neutral red dye uptake in cultures maintained in parallel plates.
# (§2) EC50, EC90, and CC50 values were calculated by linear regression analysis (MS EXCEL®, QUATTROPRO®) using data combined from all treated cultures Korba & Gerin, 1992, Antivir. Res. 19:55; Okuse, et al., 2005, Antivir. Res. 65:23). Standard deviations for EC50 and EC90 values were calculated from the standard errors generated by the regression analyses. […] The Selectivity index (S.I.) was calculated as CC50/EC50. Recombinant human interferon 2b (PBL laboratories, Inc.) was used as an assay control.
# (§3) For each combination of agents, three concentration ratios, centered on the use of the compounds at equipotent antiviral concentrations, were used. A dilution series (six three-fold-concentration steps, beginning at the approximate EC90) was then generated with the concentration ratio of the two agents remaining the same in each dilution step. Toxicity analysis was performed as described above for the monotherapies. Analysis of drug interactions in the combination studies was determined by the use of the […] program (Biosoft, Inc., Cambridge, United Kingdom). This program evaluates synergy, additivity, or antagonism by use of several methodologies, including that of Chou and Talalay with a statistical analysis employing the Monte Carlo technique to provide confidence limits, fraction-affected-confidence interval (FA-CI) plots, isobolograms, and median-effect plots. (Belenkii, M. S. Schinazi, R. A method for the analysis of combination therapies with statistical analysis. Antiviral Res. 25, 11, 2005).
# [2] = test system: HCV replicon cell line, AVA5 [sub-genomic (CON1), genotype 1b]; assay: microbe, parasite or virus in culture; format: cell-based; conditions: genotype 1B; for EC50: read-out: Control 2 (μM) EC50; for EC90: read-out: Control 2 (μM) EC90
# Description: as §1, §2, §3
# [3] = test system: replicon cell line containing H/FL-Neo (genotype 1a (H77), full length construct); assay: Secondary anti-HCV assay: genotype 1a replicon, format of the primary assay; format: cell-based; conditions: genotype 1a replicon
# Source text: Res. 19:55; Okuse, et al., 2005, Antivir. Res. 65:23).
# Secondary anti-HCV assay—This assay assesses activity against different HCV genotypes using the format described for the primary assay. Activity against the genotype 1b HCV is included for comparison. Currently available is a replicon cell line containing H/FL-Neo (genotype 1a (H77), full length construct) (Blight, et al., 2003, J. Virol. 77:3181).
# [4] = test system: WP2 uvrA; assay: In vitro bacterial mutagenicity assay (pre-incubation), strain WP2 uvrA; conditions: positive control, S9 +, 15 μg/plate
# Description: (§4) Dispense 100 microliter aliquots of the appropriate bacterial cultures into sample tubes stored on ice. Dispense aliquots of the vehicle, positive controls or dose formulations into the appropriate sample tubes. 2 mL top Agar and HBT cap was added to the sample tube, inverted three times and poured into MG plate. The lid was replaced on the plate and left on a level surface to let the agar harden. The plates were incubated in an incubator for 48 to 72 h. The background lawn and count the number of revertants was checked for each plate.
# [5] = test system: TA1535; assay: In vitro bacterial mutagenicity assay (pre-incubation), strain TA1535; conditions: positive control; for Number of revertants x1, x2, x3: individual plates; for Fold response: vs vehicle control
# Description: as §4
# [6] = test system: TA98; assay: In vitro bacterial mutagenicity assay (pre-incubation), strain TA98; conditions: positive control, TA98, S9 0, 1 μg/plate
# Description: as §4
# [7] = test system: TA1537; assay: In vitro bacterial mutagenicity assay (pre-incubation), strain TA1537; conditions: positive control, TA1537, S9 0, 10 μg/plate
# Description: as §4
# [8] = test system: TA100; assay: In vitro bacterial mutagenicity assay (pre-incubation), strain TA100; conditions: positive control, TA100, S9 0, 0.5 μg/plate
# Description: as §4
# [9] = Cytotoxicity by neutral red dye uptake in replicon cultures in parallel plates; conditions: human, AVA5 HCV replicon cells (sub-genomic CON1, genotype 1b)
# Description: as §1, §2, §3
smiles,measurement,setting,value
C[C@@]1(O)[C@H](O)[C@@H](CO)O[C@H]1n1ccc(N)nc1=O [2′CmeCyt],CC50,[1],> 300 µM
same,EC50,[2],1.4 µM
same,EC90,[2],5.3 µM
COC1C(OP(=O)(OC[C@H]2O[C@@H](n3cnc4c(N)ncnc43)CC2O)SCOC(=O)C(C)(C)C)[C@@H](CO)O[C@H]1n1ccc(=O)[nH]c1=O (some centres unmarked) [Compound 1],EC50,"[3]; 2-fold depression of intracellular HCV RNA, read-out: EC50 HCV Type 1A",2900 nM
same,EC90,"[3]; 10-fold depression of intracellular HCV RNA, read-out: EC90 HCV type 1A",8500 nM
"Nc1ccc2cc3ccccc3cc2c1 [Compound 2AA, reference compound]",Number of revertants mean,[4],373
same,"Number of revertants x1, x2, x3",[4]; individual plates,476 and 357 and 285
same,Fold response,[4]; vs vehicle control,9.6
same,Number of revertants mean,"[5]; TA1535, S9 +, 5 μg/plate",254
same,"Number of revertants x1, x2, x3","[5]; TA1535, S9 +, 5 μg/plate",263 and 242 and 257
same,Fold response,"[5]; TA1535, S9 +, 5 μg/plate",11
"O=[N+]([O-])c1ccc2c(c1)Cc1ccccc1-2 [Compound 2NF, reference compound]",Number of revertants mean,[6],139
same,"Number of revertants x1, x2, x3",[6]; individual plates,151 and 114 and 153
same,Fold response,[6]; vs vehicle control,4.5
"Nc1c2ccccc2nc2ccccc12 [Compound 9AC, reference compound]",Number of revertants mean,[7],741
same,"Number of revertants x1, x2, x3",[7]; individual plates,728 and 910 and 585
same,Fold response,[7]; vs vehicle control,57
"[N-]=[N+]=[N-].[Na+] [NaAz, reference compound]",Number of revertants mean,[8],560
same,"Number of revertants x1, x2, x3",[8]; individual plates,568 and 569 and 543
same,Fold response,[8]; vs vehicle control,5.0
same,Number of revertants mean,"[5]; TA1535, S9 0, 0.5 μg/plate",321
same,"Number of revertants x1, x2, x3","[5]; TA1535, S9 0, 0.5 μg/plate",340 and 312 (2×)
same,Fold response,"[5]; TA1535, S9 0, 0.5 μg/plate",12
CCC[C@H](NC(=O)[C@@H]1[C@H]2CCC[C@H]2CN1C(=O)[C@@H](NC(=O)[C@@H](NC(=O)c1cnccn1)C1CCCCC1)C(C)(C)C)C(=O)C(=O)NC1CC1 [VX-950],CC50 at 3 day,[9],88000 nM
same,EC50,"[2]; Hepatitis C virus, Ava5",0.249 µM
same,EC90,"[2]; Hepatitis C virus, Ava5",0.892 µM
